Data as given in ChEMBL document CHEMBL5614437, “Antibacterial and Anti-Inflammatory Activity of Branched Peptides Derived from Natural Host Defense Sequences” (J Med Chem, 2024).
≈ marks a conversion by molar mass, not a printed value. Calls of active or inactive are those of the source. No cut-off for these calls is given here. Where a SMILES comes first, the peptide text is derived from it. Bridges are numbered along the chain shown (N, C = ends). Roman numbers before positions name the chains, in order.

How the values were obtained:
[1] = test system: Escherichia coli; assay: Antibacterial activity against Escherichia coli TG1 incubated for 12 hrs by microdilution method; format: functional
[2] = test system: Klebsiella pneumoniae; assay: Antibacterial activity against colistin-resistant Klebsiella pneumoniae incubated for 12 hrs by microdilution method; format: functional
[3] = test system: Erythrocyte; assay: Hemolytic activity in human RBC assessed as hemolysis at ~15 uM incubated for 2 hrs by absorbance based plate reader analysis; format: toxicity, cell-based
[4] = test system: Enterococcus faecalis; assay: Antibacterial activity against Enterococcus faecalis 51299 incubated for 12 hrs by microdilution method; format: functional
[5] = test system: Klebsiella pneumoniae; assay: Antibacterial activity against Klebsiella pneumoniae ATCC43816 incubated for 12 hrs by microdilution method; format: functional
[6] = test system: Escherichia coli; assay: Antibacterial activity against Escherichia coli clinical isolate LC711/14 incubated for 12 hrs by microdilution method; format: functional
[7] = test system: Pseudomonas aeruginosa; assay: Antibacterial activity against Pseudomonas aeruginosa ATCC 27853 incubated for 12 hrs by microdilution method; format: functional
[8] = test system: Staphylococcus aureus; assay: Antibacterial activity against Staphylococcus aureus USA300 incubated for 12 hrs by microdilution method; format: functional
[9] = Stability of compound in human serum at 180 uM measured after 24 hrs by HPLC-MS analysis; format: ADME, cell-free
[10] = Stability of compound in human serum at 180 uM measured after 4 hrs by HPLC-MS analysis; format: ADME, cell-free
[11] = test system: Erythrocyte; assay: Hemolytic activity in human RBC assessed as hemolysis at […] incubated for 2 hrs by absorbance based plate reader analysis; format: toxicity, cell-based
[12] = test system: RAW264.7; assay: Cytotoxicity against mouse RAW264.7 cells assessed as cell killing at 200 uM incubated for 4 to 24 hrs by crystal violet staining based analysis relative to control; format: toxicity; conditions: raw264.7, 200 µM, time 4-24 hrs
[13] = test system: Cell membrane; assay: Induction of cytoplasmic membrane permeabilization in Escherichia coli TG1 assessed as loss of surface smoothness at 2 times of MIC measured after 30 to 60 mins by SEM analysis; conditions: time 30-60 min
[14] = test system: Klebsiella pneumoniae; assay: Antibiofilm activity against 24 hrs preformed biofilm in Klebsiella pneumoniae ATCC43816 assessed as reduction in preformed biofilm incubated for 14 hrs by absorbance based analysis; format: functional
[15] = test system: Cell membrane; assay: Induction of cytoplasmic membrane permeabilization in Escherichia coli TG1 assessed as increase in fluorescence at 2 times of MIC measured after 10 mins by PI/Sytox green dye based analysis; format: cell membranes
[16] = test system: Cell membrane; assay: Induction of cytoplasmic membrane permeabilization in Escherichia coli TG1 assessed as increase in fluorescence incubated for 100 to 120 mins by PI/Sytox green dye based analysis; conditions: dose 1.5-3 µM, time 100-120 min
[17] = test system: Cell membrane; assay: Induction of cytoplasmic membrane permeabilization in Escherichia coli TG1 assessed as wrinkling of membrane surface at 2 times of MIC measured after 30 to 60 mins by SEM analysis; conditions: time 30-60 min
[18] = test system: Escherichia coli; assay: Antibiofilm activity against Escherichia coli TG1 assessed as inhibition of biofilm formation incubated for 24 hrs by absorbance based analysis; format: functional
[19] = test system: Klebsiella pneumoniae; assay: Antibiofilm activity against Klebsiella pneumoniae ATCC43816 assessed as inhibition of biofilm formation incubated for 24 hrs by absorbance based analysis; format: functional
[20] = test system: Cell membrane; assay: Induction of cytoplasmic membrane permeabilization in Escherichia coli TG1 assessed as increase in fluorescence at MIC measured after 40 to 50 mins by PI/Sytox green dye based analysis; conditions: time 40-50 min
[21] = test system: Erythrocyte; assay: Hemolytic activity in human RBC assessed as hemolysis at 10 times of MIC incubated for 2 hrs by absorbance based plate reader analysis; format: toxicity, cell-based
[22] = test system: Cell membrane; assay: Induction of cytoplasmic membrane permeabilization in Escherichia coli TG1 assessed as enlargement of bacterial cells at 2 times of MIC measured after 30 to 60 mins by SEM analysis; format: cell membranes; conditions: time 30-60 min
[23] = test system: Escherichia coli; assay: Antibiofilm activity against 24 hrs preformed biofilm in Escherichia coli TG1 assessed as reduction in preformed biofilm incubated for 14 hrs by absorbance based analysis; format: functional
[24] = test system: Lipopolysaccharide (LPS); assay: Binding affinity to biotin-tagged LPS (unknown origin) preincubated for 30 mins followed by compound addition and 30 mins of incubation with streptavidin-POD by ELISA based microplate spectrophotometer; format: subcellular; conditions: dose 1-10 µg/ml

`CC[C@H](C)[C@H](NC(=O)[C@H](CO)NC(=O)[C@H](CCCCN)NC(=O)[C@H](CC(C)C)NC(=O)[C@H](CCCCN)NC(=O)[C@@H](N)CC(C)C)C(=O)N[C@H](C(=O)N[C@@H](CO)C(=O)N[C@@H](Cc1c[nH]c2ccccc12)C(=O)NCCCC[C@@H]1NC(=O)[C@H](Cc2c[nH]c3ccccc23)NC(=O)[C@H](CO)NC(=O)[C@@H](NC(=O)[C@@H](NC(=O)[C@H](CO)NC(=O)[C@H](CCCCN)NC(=O)[C@H](CC(C)C)NC(=O)[C@H](CCCCN)NC(=O)[C@@H](N)CC(C)C)[C@@H](C)CC)C(C)NCCCC[C@H](NC(=O)[C@H](CC(C)C)NC(=O)[C@H](CCCCN)NC(=O)[C@@H](N)CC(C)C)C(=O)N[C@@H](CO)C(=O)N[C@@H]([C@@H](C)CC)C(=O)N[C@@H](C(C)C)C(=O)N[C@@H](CO)C(=O)N[C@@H](Cc2c[nH]c3ccccc23)C(=O)NCCCC[C@H](NC(=O)[C@H](Cc2c[nH]c3ccccc23)NC(=O)[C@H](CO)NC(=O)[C@@H](NC(=O)[C@@H](NC(=O)[C@H](CO)NC(=O)[C@H](CCCCN)NC(=O)[C@H](CC(C)C)NC(=O)[C@H](CCCCN)NC(=O)[C@@H](N)CC(C)C)[C@@H](C)CC)C(C)C)C(=O)N[C@H](C(N)=O)CCCCNC1=O)C(C)C` (stereo partly specified) showed an MIC [1] of 12.5 µM (≈ 57.6 µg/mL).
With `CC[C@H](C)[C@H](N)C(=O)N[C@@H](CC(N)=O)C(=O)N[C@@H](CC(C)C)C(=O)N[C@@H](CCCCN)C(=O)N[C@@H](CCCCN)C(=O)N[C@@H](CC(C)C)C(=O)N[C@@H](C)C(=O)N[C@@H](CCCCN)C(=O)N[C@@H](CC(C)C)C(=O)NCCCC[C@H](NC(=O)[C@H](CC(C)C)NC(=O)[C@H](CCCCN)NC(=O)[C@H](C)NC(=O)[C@H](CC(C)C)NC(=O)[C@H](CCCCN)NC(=O)[C@H](CCCCN)NC(=O)[C@H](CC(C)C)NC(=O)[C@H](CC(N)=O)NC(=O)[C@@H](N)[C@@H](C)CC)C(=O)NCCCC[C@H](NC(=O)[C@H](CCCCNC(=O)[C@H](CC(C)C)NC(=O)[C@H](CCCCN)NC(=O)[C@H](C)NC(=O)[C@H](CC(C)C)NC(=O)[C@H](CCCCN)NC(=O)[C@H](CCCCN)NC(=O)[C@H](CC(C)C)NC(=O)[C@H](CC(N)=O)NC(=O)[C@@H](N)[C@@H](C)CC)NC(=O)[C@H](CC(C)C)NC(=O)[C@H](CCCCN)NC(=O)[C@H](C)NC(=O)[C@H](CC(C)C)NC(=O)[C@H](CCCCN)NC(=O)[C@H](CCCCN)NC(=O)[C@H](CC(C)C)NC(=O)[C@H](CC(N)=O)NC(=O)[C@@H](N)[C@@H](C)CC)C(N)=O` the MIC [2] was 6 µM (≈ 26.9 µg/mL), the Activity [3] was “Toxic” and the MIC [4] was greater than 25 µM. The MIC [5] was 12 µM (≈ 53.9 µg/mL), the MIC [6] was 6 µM (≈ 26.9 µg/mL) and the MIC [1] was 0.7 µM (≈ 3.14 µg/mL). It also gave an MIC [7] of 3 µM (≈ 13.5 µg/mL) and an MIC [8] greater than 25 µM.
With `CC(C)C[C@H](NC(=O)[C@@H](NC(=O)[C@@H](NC(=O)[C@@H](N)CO)[C@@H](C)O)C(C)C)C(=O)N[C@H](C(=O)N[C@@H](CO)C(=O)N[C@@H](CCCCN)C(=O)N[C@@H](Cc1ccc(O)cc1)C(=O)N[C@@H](CCCNC(=N)N)C(=O)NCCCC[C@H](NC(=O)[C@H](CCCNC(=N)N)NC(=O)[C@H](Cc1ccc(O)cc1)NC(=O)[C@H](CCCCN)NC(=O)[C@H](CO)NC(=O)[C@@H](NC(=O)[C@H](CC(C)C)NC(=O)[C@@H](NC(=O)[C@@H](NC(=O)[C@@H](N)CO)[C@@H](C)O)C(C)C)[C@@H](C)O)C(=O)NCCCC[C@H](NC(=O)[C@H](CCCCNC(=O)[C@H](CCCNC(=N)N)NC(=O)[C@H](Cc1ccc(O)cc1)NC(=O)[C@H](CCCCN)NC(=O)[C@H](CO)NC(=O)[C@@H](NC(=O)[C@H](CC(C)C)NC(=O)[C@@H](NC(=O)[C@@H](NC(=O)[C@@H](N)CO)[C@@H](C)O)C(C)C)[C@@H](C)O)NC(=O)[C@H](CCCNC(=N)N)NC(=O)[C@H](Cc1ccc(O)cc1)NC(=O)[C@H](CCCCN)NC(=O)[C@H](CO)NC(=O)[C@@H](NC(=O)[C@H](CC(C)C)NC(=O)[C@@H](NC(=O)[C@@H](NC(=O)[C@@H](N)CO)[C@@H](C)O)C(C)C)[C@@H](C)O)C(N)=O)[C@@H](C)O` (HELM PEPTIDE1{S.T.V.L.T.S.K.Y.R.K.K.[am]}|PEPTIDE2{S.T.V.L.T.S.K.Y.R.K}|PEPTIDE3{S.T.V.L.T.S.K.Y.R}|PEPTIDE4{S.T.V.L.T.S.K.Y.R}$PEPTIDE1,PEPTIDE4,10:R3-9:R2|PEPTIDE1,PEPTIDE2,11:R3-10:R2|PEPTIDE2,PEPTIDE3,10:R3-9:R2$$$V2.0) the MIC [1] was 25 µM (≈ 114 µg/mL).
In the case of H-GRFKRFRKKL-OH, the Stability [9] is reported as “Unstable” and the Stability [10] is reported as “Stable”.
In the case of H-KKLLGKNWKLM-OH, the Stability [9] is reported as “Unstable” and the Stability [10] is reported as “Unstable”.
With H-LLKKVLKAAAK-OH the Stability [9] was “Unstable” and the Stability [10] was “Unstable”.
With H-TLLKKVLKAAAK-OH the Stability [9] was “Unstable” and the Stability [10] was “Stable”.
“I: H-ALLKRIKTLLKK-NH2 / II: H-ALLKRIKTLLK / III: H-ALLKRIKTLL / IV: H-ALLKRIKTLL (amide I:11-IV:C, I:12-II:C, II:11-III:C)” gave an MIC [1] of 25 µM.
“I: H-GIIDIAKKLFESWKK-NH2 / II: H-GIIDIAKKLFESWK / III: H-GIIDIAKKLFESW / IV: H-GIIDIAKKLFESW (amide I:14-IV:C, I:15-II:C, II:14-III:C)” gave an MIC [1] of 12.5 µM.
With “I: H-INLKAIAALAKKLLKK-NH2 / II: H-INLKAIAALAKKLLK / III: H-INLKAIAALAKKLL / IV: H-INLKAIAALAKKLL (amide I:15-IV:C, I:16-II:C, II:15-III:C)” the MIC [1] was 12.5 µM.
Molecule “I: H-KLLKFIKTLLKK-NH2 / II: H-KLLKFIKTLLK / III: H-KLLKFIKTLL / IV: H-KLLKFIKTLL (amide I:11-IV:C, I:12-II:C, II:11-III:C)” has an MIC [1] of 12.5 µM.
With “I: H-KLLKRIKTLLKK-NH2 / II: H-KLLKRIKTLLK / III: H-KLLKRIKTLL / IV: H-KLLKRIKTLL (amide I:11-IV:C, I:12-II:C, II:11-III:C)” the MIC [2] was 12.5 µM, the Activity [11] was “Toxic” and the MIC [4] was 25 µM. It also gave an MIC [5] of 6 µM, an MIC [6] of 6 µM and an MIC [1] of 6 µM. The MIC [7] was 6 µM and the MIC [8] was 3 µM.
“I: H-KRLWHKVGPFKK-NH2 / II: H-KRLWHKVGPFK / III: H-KRLWHKVGPF / IV: H-KRLWHKVGPF (amide I:11-IV:C, I:12-II:C, II:11-III:C)” showed an MIC [1] of 12.5 µM.
For “I: H-LLKKVLKAAAKKK-NH2 / II: H-LLKKVLKAAAKK / III: H-LLKKVLKAAAK / IV: H-LLKKVLKAAAK (amide I:12-IV:C, I:13-II:C, II:12-III:C)”, the Activity [12] was 100%, the Activity [13] was “Active” and the MBIC80 [14] was 50 µM. For the same molecule, the Activity [15] was “Active”, the Activity [16] was “Dose-Dependent Effect” and the MIC [2] was greater than 25 µM. The Activity [17] was “Active”, the IC20 [18] was 6 µM and the IC20 [19] was greater than 50 µM. The Activity [20] was “Active”, the Activity [21] was “Non-Toxic” and the MIC [4] was greater than 25 µM. The Activity [22] was “Active”, the MIC [5] was 12.5 µM and the MIC [6] was 6 µM. For the same molecule, the MBIC80 [23] was 50 µM, the MIC [1] was 1.5 µM and the MIC [7] was 6 µM. The Stability [9] was “Stable”, the Stability [10] was “Stable” and the Activity [24] was “Dose-Dependent Effect”. It also gave an MIC [8] greater than 25 µM.
“I: H-LSAAHRLAIGRRKK-NH2 / II: H-LSAAHRLAIGRRK / III: H-LSAAHRLAIGRR / IV: H-LSAAHRLAIGRR (amide I:13-IV:C, I:14-II:C, II:13-III:C)” showed an MIC [1] of 12.5 µM.
“I: H-LSAAHSLAIGRRKK-NH2 / II: H-LSAAHSLAIGRRK / III: H-LSAAHSLAIGRR / IV: H-LSAAHSLAIGRR (amide I:13-IV:C, I:14-II:C, II:13-III:C)” showed an MIC [1] of 25 µM.
“I: H-LSAARSLAIGRRKK-NH2 / II: H-LSAARSLAIGRRK / III: H-LSAARSLAIGRR / IV: H-LSAARSLAIGRR (amide I:13-IV:C, I:14-II:C, II:13-III:C)” gave an MIC [1] of 12.5 µM.
